The text below walks through data of US9902712B2, “Nitrogenous heterocyclic derivatives and their application in drugs” (Sunshine Lake Pharma Co., Ltd., priority 2013, dated 2018).

The test deals with HFL1 cells. As to the kind of experiment: HFL1 cell proliferation inhibition (CCK-8, optical density at 450 nm). The settings on record: for IC50: Homo sapiens, 48 hours after dosing, CCK-8, cell proliferation inhibition; for The ratio with PFD: IC50 ratio of Pirfenidone to the compound, 48 hours. It counts as cell-based. On the procedure:
Example 69: Cell Experiment Method
HFL1 cells in exponential growth phase were cultured, cells were digested and collected using traditional subculturing when reaching 85-95% fusion and the cells were counted to adjust, the cell density to 5×10^4 cells per milliliter, then the cells were seed into 96-well plates, 100 μl/well and incubated in a 5% CO2 incubator at 37° C.
The supernatant of the 96-well plates was removed at 24 hours after the cells adhering to the wall and solutions containing the above compounds with different concentration were added to the wells, with 100 μl/well (the concentration of each compounds are in the range of 0.003-8 mmol/L) each concentration in 3 replicates, and the cells were cultured 48 hours after dosing.
3. Testing the Optical Density
10 μl of CCK-8 solution was added to each well 48 hours after dosing, and incubated for 2 hours. The optical density (A) of each well was determined using a microplate reader at 450 nm wavelength. The cell proliferation inhibition ratio of each compound were calculated based on A using the formula of: cell proliferation inhibition ratio(inhibition ratio, IR)=(1−value of experimental group (Ai)/value of control group (Ao))×100%, in which IC50 of each compound at 48 hours was calculated by data processing software, wherein the control group was the blank group.

As a reminder, the IC50 is the midpoint of a concentration-inhibition curve. A higher IC50 goes with lower potency.

As to `Cc1cc(=O)n(-c2ccc(N3CCC(Cc4ccccc4F)CC3)c(Cl)c2)c(C)n1` [Example 6, 3-(3-chloro-4-(4-(2-fluorobenzyl)piperidin-1-yl)phenyl)-2,6-dimethylpyrimidin-4(3H)-one], the IC50 was 70 µM and the “The ratio with PFD” value was 121 multiple.
As to `Cc1cc(=O)n(-c2ccc(N3CCC(Cc4cccc5ccccc45)CC3)c(Cl)c2)c(C)n1` [Example 9, 3-(3-chloro-4-(4-(naphthalen-1-ylmethyl)piperidin-1-yl)phenyl)-2,6-dimethylpyrimidin-4(3H)-one], the midpoint of inhibition, the IC50, lay at 80 µM and the “The ratio with PFD” value was 179 multiple.
Consider `Cc1cc(=O)n(-c2ccc(N3CCC(Cc4ccc5ccccc5c4)CC3)c(Cl)c2)c(C)n1` [Example 10, 3-(3-chloro-4-(4-(naphthalen-2-ylmethyl)piperidin-1-yl)phenyl)-2,6-dimethylpyrimidin-4(3H)-one], for which half-maximal inhibition (IC50) was put at 78 µM and the “The ratio with PFD” value turned out to be 111 multiple.
The like results for `COc1cccc(CC2CCN(c3ccc(-n4c(C)nc(C)cc4=O)cc3Cl)CC2)c1` [Example 12, 3-(3-chloro-4-(4-(3-methoxybenzyl)piperidin-1-yl)phenyl)-2,6-dimethylpyrimidin-4(3H)-one] were, in that order, 80 µM and 112 multiple.
In the same order, the values of `Cc1cc(=O)n(-c2ccc(N3CCC(Cc4ccccc4-c4ccccc4)CC3)c(Cl)c2)c(C)n1` [Example 13, 3-(4-(4-([1,1′-biphenyl]-2-ylmethyl)piperidin-1-yl)-3-chlorophenyl)-2,6-dimethylpyrimidin-4(3H)-one] are 70 µM and 118 multiple.
In the same order, the values of `Cc1cc(=O)n(-c2ccc(N3CCC(Cc4cccc(C(F)(F)F)c4)CC3)c(Cl)c2)c(C)n1` [Example 14, 3-(3-chloro-4-(4-(3-(trifluoromethyl)benzyl)piperidin-1-yl)phenyl)-2,6-dimethylpyrimidin-4(3H)-one] are 60 µM and 139 multiple.
`Cc1cc(=O)n(-c2ccc(N3CCC(Cc4ccccc4Cl)CC3)c(Cl)c2)c(C)n1` [Example 15, 3-(3-chloro-4-(4-(2-chlorobenzyl)piperidin-1-yl)phenyl)-2,6-dimethylpyrimidin-4(3H)-one]: the IC50 was found to be 65 µM and the “The ratio with PFD” value is 151 multiple.
In the same order, the values of `Cc1cc(=O)n(-c2ccc(N3CCC(Cc4ccc(Cl)c(F)c4)CC3)c(Cl)c2)c(C)n1` [Example 16, 3-(3-chloro-4-(4-(4-chloro-3-fluorobenzyl)piperidin-1-yl)phenyl)-2,6-dimethylpyrimidin-4(3H)-one] are 70 µM and 139 multiple.
Turning to `Cc1cc(=O)n(-c2ccc(N3CCC(Cc4cc(F)c(F)c(F)c4)CC3)c(Cl)c2)c(C)n1` [Example 17, 3-(3-chloro-4-(4-(3,4,5-trifluorobenzyl)piperidin-1-yl)phenyl)-2,6-dimethylpyrimidin-4(3H)-one], the IC50 was determined as 70 µM and the “The ratio with PFD” value came to 137 multiple.
The like results for `Cc1cc(=O)n(-c2ccc(N3CCC(Cc4cccc(Cl)c4)CC3)c(Cl)c2)c(C)n1` [Example 19, 3-(3-chloro-4-(4-(3-chlorobenzyl)piperidin-1-yl)phenyl)-2,6-dimethylpyrimidin-4(3H)-one] were, in that order, 70 µM and 137 multiple.
On to `Cc1cc(=O)n(-c2ccc(N3CCC(Cc4cccc5cccnc45)CC3)c(Cl)c2)c(C)n1` [Example 22, 3-(3-chloro-4-(4-(quinolin-8-ylmethyl)piperidin-1-yl)phenyl)-2,6-dimethylpyrimidin-4(3H)-one], for which the IC50 was 90 µM and the “The ratio with PFD” value was found to be 101 multiple.
For `Cc1cc(=O)n(-c2ccc(N3CCC(Cc4ccc(F)cc4)CC3)c(F)c2)c(C)n1` [Example 25, 3-(3-fluoro-4-(4-(4-fluorobenzyl)piperidin-1-yl)phenyl)-2,6-dimethylpyrimidin-4(3H)-one], half-maximal inhibition (IC50) required 100 µM and the “The ratio with PFD” value was found to be 107 multiple.
Turning to `Cc1cc(=O)n(-c2ccc(N3CCC(Cc4cccc5ccccc45)CC3)c(F)c2)c(C)n1` [Example 26, 3-(3-fluoro-4-(4-(naphthalen-1-ylmethyl)piperidin-1-yl)phenyl)-2,6-dimethylpyrimidin-4(3H)-one], the IC50 was determined as 60 µM and the “The ratio with PFD” value was determined as 137 multiple.
The like results for `Cc1cc(=O)n(-c2ccc(N3CCC(Oc4cccc(C#N)c4)CC3)c(Cl)c2)c(C)n1` [Example 29, 3-((1-(2-chloro-4-(2,4-dimethyl-6-oxopyrimidin-1 (6H)-yl)phenyl)piperidin-4-yl)oxy)benzonitrile] were, in that order, 90 µM and 107 multiple.
The like results for `Cc1cc(=O)n(-c2ccc(N3CCC(COc4cccc(F)c4)CC3)c(Cl)c2)c(C)n1` [Example 30, 3-(3-chloro-4-(4-((3-fluorophenoxy)methyl)piperidin-1-yl)phenyl)-2,6-dimethylpyrimidin-4(3H)-one] were, in that order, 60 µM and 136 multiple.
`Cc1cc(=O)n(-c2ccc(N3CCC(OCc4cccc(F)c4)CC3)c(Cl)c2)c(C)n1` [Example 32, 3-(3-chloro-4-(4-((3-fluorobenzyl)oxy)piperidin-1-yl)phenyl)-2,6-dimethylpyrimidin-4(3H)-one]: the IC50 was 100 µM and the “The ratio with PFD” value is recorded as 107 multiple.
Consider `C=CCc1ccccc1OC1CCN(c2ccc(-n3c(C)nc(C)cc3=O)cc2Cl)CC1` [Example 33, 3-(4-(4-(2-allylphenoxy)piperidin-1-yl)-3-chlorophenyl)-2,6-dimethylpyrimidin-4(3H)-one], for which the IC50 amounted to 70 µM and the “The ratio with PFD” value worked out at 149 multiple.
In the same order, the values of `Cc1cc(=O)n(-c2ccc(N3CCC(Oc4cccc(N)c4)CC3)c(Cl)c2)c(C)n1` [Example 34, 3-(4-(4-(3-aminophenoxy)piperidin-1-yl)-3-chlorophenyl)-2,6-dimethylpyrimidin-4(3H)-one] are 90 µM and 154 multiple.
In the same order, the values of `Cc1cc(=O)n(-c2ccc(N3CCC(Oc4ccccc4OC(F)(F)F)CC3)c(Cl)c2)c(C)n1` [Example 35, 3-(3-chloro-4-(4-(2-(trifluoromethoxy)phenoxy)piperidin-1-yl)phenyl)-2,6-dimethylpyrimidin-4(3H)-one] are 120 µM and 119 multiple.
The like results for `Cc1ccc(OC2CCN(c3ccc(-n4c(C)nc(C)cc4=O)cc3Cl)CC2)c(Cl)c1` [Example 37, 3-(3-chloro-4-(4-(2-chloro-4-methylphenoxy)piperidin-1-yl)phenyl)-2,6-dimethylpyrimidin-4(3H)-one] were, in that order, 80 µM and 181 multiple.
For `Cc1cc(=O)n(-c2ccc(N3CCC(Cc4ccc(F)c(F)c4)CC3)c(Cl)c2)c(C)n1` [Example 44, 3-(3-chloro-4-(4-(3,4-difluorobenzyl)piperidin-1-yl)phenyl)-2,6-dimethylpyrimidin-4(3H)-one], the concentration for half-maximal inhibition (IC50) worked out at 70 µM and the “The ratio with PFD” value is 139 multiple.
In the same order, the values of `Cc1cc(=O)n(-c2ccc(N3CCC(Cc4ccc5cc(F)ccc5c4)CC3)c(Cl)c2)c(C)n1` [Example 51, 3-(3-chloro-4-(4-((6-fluoronaphthalen-2-yl)methyl)piperidin-1-yl)phenyl)-2,6-dimethylpyrimidin-4(3H)-one] are 37 µM and 618 multiple.
In the case of `Cc1cc(=O)n(-c2ccc(N3CCC(COc4cccc(C(F)(F)F)c4)CC3)c(Cl)c2)c(C)n1` [Example 53, 3-(3-chloro-4-(4-((3-(trifluoromethyl)phenoxy)methyl)piperidin-1-yl)phenyl)-2,6-dimethylpyrimidin-4(3H)-one], the IC50 stood at 38 µM and the “The ratio with PFD” value stood at 602 multiple.
For the compound `Cc1cc(=O)n(-c2ccc(N3CCC(Cc4cc(F)cc5cccnc45)CC3)c(Cl)c2)c(C)n1` [Example 54, 3-(3-chloro-4-(4-((6-fluoroquinolin-8-yl)methyl)piperidin-1-yl)phenyl)-2,6-dimethylpyrimidin-4(3H)-one], half-maximal inhibition (IC50) required 40 µM and the “The ratio with PFD” value was 209 multiple.
In the same order, the values of `Cc1cc(=O)n(-c2ccc(N3CCC(Cc4ccc(C(F)(F)F)c5cccnc45)CC3)c(Cl)c2)c(C)n1` [Example 56, 3-(3-chloro-4-(4-((5-(trifluoromethyl)quinolin-8-yl)methyl)piperidin-1-yl)phenyl)-2,6-dimethylpyrimidin-4(3H)-one] are 40 µM and 209 multiple.
Consider `Cc1cc(=O)n(-c2ccc(N3CCC(Cc4cc(F)c(F)c5cccnc45)CC3)c(Cl)c2)c(C)n1` [Example 57, 3-(3-chloro-4-(4-((5,6-difluoroquinolin-8-yl)methyl)piperidin-1-yl)phenyl)-2,6-dimethylpyrimidin-4(3H)-one], for which the IC50 stood at 60 µM and the “The ratio with PFD” value is recorded as 168 multiple.
In the same order, the values of `Cc1cc(=O)n(-c2ccc(N3CCC(Cc4ccc(F)c5ccccc45)CC3)c(Cl)c2)c(C)n1` [Example 58, 3-(3-chloro-4-(4-((4-fluoronaphthalen-1-yl)methyl)piperidin-1-yl)phenyl)-2,6-dimethylpyrimidin-4(3H)-one] are 64 µM and 357 multiple.
